Assay results published in article PMC10045663, “Synthesis, In Vitro Biological Evaluation of Antiproliferative and Neuroprotective Effects and In Silico Studies of Novel 16E-Arylidene-5α,6α-epoxyepiandrosterone Derivatives” (Biomedicines, 2023).

Columns and labels:
Assay type in all cases: cell-based
[1] = tested on: NHDF cells (normal human dermal fibroblasts); experiment: MTT cell proliferation assay, NHDF cells; conditions: 72 h, non-tumoral cells, read-out: Estimated IC50, NHDF
MCF-7 cells [2] = experiment: Nuclear area analysis with ImageJ (Hoechst 33342-stained nuclei); conditions: MCF-7, 1 and 10 µM, 48 h
Excerpt: The nuclear measurements were achieved by converting 16-bit photomicrographs of Hoechst 33342-stained nuclei in different studied conditions into 8-bit images. Then, these imagens were autothresholded to binary photos using the default “Make binary” function of ImageJ (v. 1.49) software (NIH Image, Bethesda, MD, USA). Cell nuclei that are touching were separated and fragments were discarded based on area through “Analyze Particle” function. This function also provides several other information, such as nuclear area (NA), circumference, and form factor [26]. Furthermore, the “Nearest Neighbor Distance” (NND) was determined. This function allows measuring the distance between each cell nucleus and the nearest ones, providing information about cell distribution.

[3] = tested on: LNCaP cells (androgen-dependent prostatic cancer); experiment: MTT cell proliferation assay, LNCaP cells; conditions: 72 h
MCF-7 cells [4] = experiment: Immunocytochemistry assay, Ki67 staining; conditions: 48 h
Description: MCF-7 cells were trypsinized and counted by the trypan-blue exclusion assay, and then cells were seeded with an initial density of 3 × 10^4 cells/mL in 24-well culture plates (Nunc, Apogent, Denmark) containing circular coverslips of 10 mm diameter. Following seeding (48 h), cells were treated with 1 and 10 µM concentrations of 5-FU, as positive controls, and steroid 19 for 48 h. Untreated cells were used as a negative control. After this period, photograph shots were acquired at an optical microscope coupled with a digital camera (Supplementary Material, S2). Subsequently, the medium was removed, and cells were fixed with 10% formalin (15 min, room temperature). After fixation, cells were washed three times with PBS, permeabilized, and blocked for non-specific binding sites for 1 h with 0.5% Triton X-100 and 6% BSA at room temperature. Cells were incubated at 4 °C with 30 μL/coverslip of primary antibody, rabbit polyclonal anti-Ki67 (1:50, Abcam Plc.), prepared in 0.3% BSA and 0.1% Triton X-100, overnight. Then, cells were washed three times with PBS and incubated for 1 h, at room temperature, with 30 μL/coverslip of a solution containing the secondary antibody, Alexa Fluor 488 donkey anti-rabbit (1:200, Life Technologies), and the nuclear marker Hoechst-33342 (1:500, Life Technologies) prepared in PBS. Lastly, the coverslips were washed three times with PBS, mounted on a drop of the fluoroshield mounting medium (Abcam, Plc.) on a microscope slide, and left to dry for 24 h. Photomicrographs were taken using an Axio Imager A1 microscope (Carl Zeiss, Göttingen, Germany) with the 40 × objective.

Substance: (E)-16-(2,3-Dichlorobenzylidene)-3-hydroxy-5α ,6α -epoxy-10,13-dimethyl-1,3,4,7,8,9,10,11,12,13,15,16-dodecahydro-2H-cyclopenta[α ]phenanthren-17(14H)-one [Compound 19]
- IC50 [1]: 18.7 µM
- nuclear area (NA) relative to the control (MCF-7 cells [2]): decreased significantly
- effect on LNCaP cell proliferation ([3]; LNCaP, 10 µM): no relevant effects
- decrease in LNCaP cell proliferation ([3]; LNCaP, 50 µM): higher than 75%
- IC50 ([3]; MTT, tumoral cells, read-out: Estimated IC50, LNCaP): 12.8 µM
- Ki67-positive cells relative to control (MCF-7 cells [4]; MCF-7, 1 µM): none of the compounds significantly affected
- Ki67-positive cells relative to control (MCF-7 cells [4]; MCF-7, 10 µM): statistically significant decrease
